The values below come from patent publication US8324245B2, “Quinoline derivative and quinazoline derivative inhibiting self-phosphorylation of hepatocytus proliferator receptor, and medicinal composition containing the same” (Kyowa Hakko Kirin Co., Ltd., priority 2001, dated 2012).

T1 sequence (P08581 25-1390): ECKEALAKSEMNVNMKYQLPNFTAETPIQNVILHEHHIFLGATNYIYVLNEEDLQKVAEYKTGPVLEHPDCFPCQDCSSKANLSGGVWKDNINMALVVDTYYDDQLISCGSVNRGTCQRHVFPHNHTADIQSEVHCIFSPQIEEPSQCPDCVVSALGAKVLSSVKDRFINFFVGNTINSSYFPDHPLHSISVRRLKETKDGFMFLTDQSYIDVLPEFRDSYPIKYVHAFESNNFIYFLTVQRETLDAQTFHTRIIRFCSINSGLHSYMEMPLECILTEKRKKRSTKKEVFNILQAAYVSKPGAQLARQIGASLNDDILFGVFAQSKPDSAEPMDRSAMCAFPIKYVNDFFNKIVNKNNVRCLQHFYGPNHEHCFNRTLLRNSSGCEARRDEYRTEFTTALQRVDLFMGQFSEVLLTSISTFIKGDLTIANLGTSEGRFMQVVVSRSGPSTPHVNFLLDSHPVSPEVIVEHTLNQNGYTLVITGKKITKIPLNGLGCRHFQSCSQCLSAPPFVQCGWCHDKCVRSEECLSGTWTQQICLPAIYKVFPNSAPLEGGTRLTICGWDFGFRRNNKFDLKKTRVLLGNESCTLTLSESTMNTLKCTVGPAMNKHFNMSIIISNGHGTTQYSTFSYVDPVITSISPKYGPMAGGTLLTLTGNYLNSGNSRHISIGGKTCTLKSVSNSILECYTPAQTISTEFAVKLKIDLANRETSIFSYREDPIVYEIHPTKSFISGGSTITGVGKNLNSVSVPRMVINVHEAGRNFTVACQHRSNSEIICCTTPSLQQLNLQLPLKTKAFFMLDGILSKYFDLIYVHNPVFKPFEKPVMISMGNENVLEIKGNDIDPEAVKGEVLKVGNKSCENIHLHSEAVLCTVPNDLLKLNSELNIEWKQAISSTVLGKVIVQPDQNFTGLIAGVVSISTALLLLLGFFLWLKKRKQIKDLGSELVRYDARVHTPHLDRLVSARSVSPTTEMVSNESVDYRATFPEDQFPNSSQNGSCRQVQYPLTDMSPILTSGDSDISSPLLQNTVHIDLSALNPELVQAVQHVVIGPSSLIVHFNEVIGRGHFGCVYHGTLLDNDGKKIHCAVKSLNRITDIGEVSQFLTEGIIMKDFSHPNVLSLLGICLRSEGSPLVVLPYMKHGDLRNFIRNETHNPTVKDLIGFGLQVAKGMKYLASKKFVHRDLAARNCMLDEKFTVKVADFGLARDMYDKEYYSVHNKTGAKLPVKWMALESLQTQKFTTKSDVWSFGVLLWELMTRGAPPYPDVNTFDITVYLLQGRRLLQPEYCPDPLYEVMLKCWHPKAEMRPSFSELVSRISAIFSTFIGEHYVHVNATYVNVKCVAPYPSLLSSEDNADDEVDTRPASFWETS

The assay concerns the target T1, met (HGF receptor) in human gastric cancer cells MKN45 (Homo sapiens, UniProt P08581).
T1 construct: endogenous in cells; host or cells: MKN45 human gastric cancer cells
As to the kind of experiment: Inhibitory activity against met-autophosphorylation using ELISA method (2), MKN45 cells, HGF-independent. The class given is cell-based. An outline of the steps: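 MKN45 cells, 3×10^4 per well in RPMI with 0.1% FCS overnight, were exposed to compound in DMSO for 1 h at 37 °C without HGF. Lysates were captured on anti-phosphotyrosine (PY20) plates, Met detected with anti-Met and peroxidase secondary antibody, absorbance at 450 nm.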
In general terms: In an ELISA, binding on a coated surface is turned into a signal by an enzyme label.
What is called IC50 is the point on the concentration scale where inhibition reaches its midpoint. A low value points to greater potency in that assay. The molecule `COc1cc2nccc(Oc3ccc(NC(=S)NC(=O)Cc4ccccc4)cc3OC)c2cc1OC` [Example 68, 1-[4-(6,7-dimethoxyquinolin-4-yloxy)-3-methoxyphenyl]-3-phenylacetylthiourea] registered a half-inhibitory concentration (IC50) of 194 nM.

On to `COc1cc2nccc(Oc3ccc(NC(=O)NC(=O)CN4CCC(Cc5ccccc5)CC4)cc3F)c2cc1OC` [Example 120, 1-[2-(4-benzyl-piperidin-1-yl)acetyl]-3-[4-(6,7-dimethoxyquinolin-4-yloxy)-3-fluorophenyl]urea], for which the IC50 was determined as 1570 nM.

For `COc1cc2nccc(Oc3ccc(NC(=O)NC(=O)Nc4ccc(F)cc4Cl)cc3)c2cc1OC` [Example 250, N-(2-chloro-4-fluorophenyl)-({[4-(6,7-dimethoxyquinolin-4-yloxy)anilino]carbonyl}amino)-methanamide], the IC50 was determined as 447 nM.

Take `COc1cc2nccc(Oc3ccc(NC(=S)NC(=O)CCCC(C)C)cc3F)c2cc1OC` [Example 179, 1-[4-(6,7-dimethoxyquinolin-4-yloxy)-3-fluorophenyl]-3-(5-methyl-hexanoyl)thiourea]: the IC50 stood at 261 nM.

With `COc1cc2nccc(Oc3ccc(NC(=S)NC(=O)Cc4ccc(C)cc4)c(F)c3)c2cc1OC` [Example 92, 1-[4-(6,7-dimethoxyquinolin-4-yloxy)-2-fluoro-phenyl]-3-(2-p-tolylacetyl)thiourea], the IC50 came out at 148 nM.

Molecule `COc1cc2nccc(Oc3ccc(NC(=O)NC(=O)CN4CCCC4)cc3Cl)c2cc1OC` [Example 111, 1-[3-chloro-4-(6,7-dimethoxyquinolin-4-yloxy)phenyl]-3-(2-pyrrolidin-1-ylacetyl)urea] yielded a concentration for half-maximal inhibition (IC50) of 1810 nM.

Consider `COc1cc2nccc(Oc3ccc(NC(=O)NC(=O)Cc4cccc(F)c4F)cc3F)c2cc1OC` [Example 139, 1-[2-(2,3-difluorophenyl)acetyl]-3-[4-(6,7-dimethoxyquinolin-4-yloxy)-3-fluorophenyl]urea], for which the half-inhibitory concentration (IC50) came to 243 nM.

Consider `COc1cc2c(Oc3ccc(NC(=S)NC(=O)Cc4ccc(F)cc4)cc3F)ccnc2cc1OCCCN1CCC(CO)CC1` [Example 310, 1-(3-Fluoro-4-{7-[3-(4-hydroxymethyl-piperidin-1-yl)-propoxy]-6-methoxy-quinolin-4-yloxy}-phenyl)-3-[2-(4-fluoro-phenyl)-acetyl]-thiourea], for which the midpoint of inhibition, the IC50, lay at 21.1 nM.

`COc1cc2nccc(Oc3ccc(NC(=S)NC(=O)Cc4ccccc4C)cc3F)c2cc1OC` [Example 84, 1-[4-(6,7-dimethoxyquinolin-4-yloxy)-3-fluorophenyl]-3-(2-o-tolylacetyl)thiourea] came in with an IC50 of 40 nM.

`COc1cc2nccc(Oc3ccc(NC(=S)NC(=O)Cc4ccc(C)cc4)cc3Cl)c2cc1OC` [Example 82, 1-[3-chloro-4-(6,7-dimethoxyquinolin-4-yloxy)-phenyl]-3-(2-p-tolylacetyl)thiourea]: the IC50 is 74.3 nM.

The molecule `COc1cc2c(Oc3ccc(NC(=O)NC(=O)Cc4ccccc4F)cc3F)ccnc2cc1OCCCN1CCCCC1` [Example 295, 1-{3-Fluoro-4-[6-methoxy-7-(3-piperidin-1-yl-propoxy)-quinolin-4-yloxy]-phenyl}-3-[2-(2-fluoro-phenyl)-acetyl]-urea] returned an IC50 of 24.1 nM.

Turning to `COc1cc2nccc(Oc3ccc(NC(=O)NC(=O)Nc4cccc(C)c4)cc3)c2cc1OC` [Example 256, N-(3-methylphenyl)-({[4-(6,7-dimethoxy-quinolin-4-yloxy)anilino]carbonyl}amino)methanamide], the IC50 was found to be 281 nM.

As to `COc1cc2nccc(Oc3ccc(NC(=O)NC(=O)Cc4cccc(F)c4)c(F)c3)c2cc1OC` [Example 36, 1-[4-(6,7-dimethoxyquinolin-4-yloxy)-2-fluoro-phenyl]-3-[2-(3-fluorophenyl)acetyl]urea], half-maximal inhibition (IC50) required 198 nM.

Turning to `COc1cc2nccc(Oc3ccc(NC(=S)NC(=O)CC4C5CCC4CC5)cc3Cl)c2cc1OC` (centres unmarked) [Example 91, 1-(2-bicyclo[2.2.1]hepto-7-ylacetyl)-3-[3-chloro-4-(6,7-dimethoxyquinolin-4-yloxy)phenyl]thiourea], the midpoint of inhibition, the IC50, lay at 40.1 nM.

The molecule `COc1cc2nccc(Oc3ccc(NC(=O)CC(=O)Nc4cccnc4)cc3)c2cc1OC` [Example 227, N-[4-(6,7-dimethoxyquinolin-4-yloxy)phenyl]-N′-pyridin-3-ylmalonamide] displayed a concentration for half-maximal inhibition (IC50) of 4360 nM.

For `COc1cccc(CC(=O)NC(=S)Nc2ccc(Oc3ccnc4cc(OC)c(OC)cc34)c(Cl)c2)c1` [Example 186, 1-[3-chloro-4-(6,7-dimethoxyquinolin-4-yloxy)phenyl]-3-[2-(3-methoxyphenyl)acetyl]thiourea], it took 234 nM to reach half-maximal inhibition (IC50).

`COc1cc2c(Oc3ccc(NC(=S)NC(=O)Cc4ccccc4)cc3F)ccnc2cc1OCCN1CCOCC1` [Example 276] returned an IC50 of 19 nM.

In turn, `COc1cc2nccc(Oc3ccc(NC(=O)NC(=O)Nc4ccc(C)cc4)cc3)c2cc1OC` [Example 257, N-(4-methylphenyl)-({[4-(6,7-dimethoxy-quinolin-4-yloxy)anilino]carbonyl}amino)methanamide] registered an IC50 of 286 nM.

Molecule `COc1cc2nccc(Oc3ccc(NC(=S)NC(=O)Cc4ccc(C)cc4)cc3)c2cc1OC` [Example 168, 1-[4-(6,7-dimethoxyquinolin-4-yloxy)phenyl]-3-(2-p-tolylacetyl)thiourea] had an IC50 of 306 nM.

For `COc1cc2nccc(Oc3ccc(NC(=O)NC(=O)Cc4ccccc4)cc3F)c2cc1OC` [Example 17, 1-[4-(6,7-dimethoxyquinolin-4-yloxy)-3-fluoro-phenyl]-3-phenylacetylurea], inhibition was half-maximal at 30.7 nM (IC50).

In the case of `COc1cc2nccc(Oc3ccc(NC(=S)NC(=O)CC4C5CCC4CC5)cc3)c2cc1OC` (centres unmarked) [Example 88, 1-(2-bicyclo[2.2.1]hepto-7-ylacetyl)-3-[4-(6,7-dimethoxyquinolin-4-yloxy)phenyl]thiourea], the concentration for half-maximal inhibition (IC50) was determined as 49.2 nM.

Turning to `COc1ccccc1CC(=O)NC(=S)Nc1ccc(Oc2ccnc3cc(OC)c(OC)cc23)cc1F` [Example 169, 1-[4-(6,7-dimethoxyquinolin-4-yloxy)-2-fluorophenyl]-3-[2-(2-methoxyphenyl)acetyl]thiourea], half-maximal inhibition (IC50) required 276 nM.

`COc1cc2c(Oc3ccc(NC(=O)NC(=O)Cc4ccccc4)c(F)c3)ccnc2cc1OCCCN1CCC(CO)CC1` [Example 311, 1-(2-Fluoro-4-{7-[3-(4-hydroxymethyl-piperidin-1-yl)-propoxy]-6-methoxy-quinolin-4-yloxy}-phenyl)-3-phenyl-acetyl-urea] had an IC50 of 18.5 nM.

Consider `COc1cc(Oc2ccnc3cc(OC)c(OC)cc23)ccc1NC(=O)NC(=O)Cc1ccc(F)cc1` [Example 38, 1-[4-(6,7-dimethoxyquinolin-4-yloxy)-2-methoxyphenyl]-3-[2-(4-fluorophenyl)acetyl]urea], for which the IC50 amounted to 29.1 nM.

In turn, `COc1cc2nccc(Oc3ccc(NC(=S)NC(=O)Cc4cc(F)cc(F)c4)cc3F)c2cc1OC` [Example 197, 1-[2-(3,5-difluorophenyl)acetyl]-3-[4-(6,7-dimethoxyquinolin-4-yloxy)-3-fluorophenyl]thiourea] came in with an IC50 of 284 nM.

Take `COc1cc2nccc(Oc3ccc(NC(=O)NC(=O)CSC4CCCC4)cc3)c2cc1OC` [Example 7, 1-(2-cyclopentylsulfanylacetyl)-3-[4-(6,7-dimethoxyquinolin-4-yloxy)phenyl]urea]: the IC50 is 292 nM.
